Holding throughout (assay type): functional
Assay [1] concerns Klebsiella pneumoniae. Briefly: Antimicrobial activity against ESBL-positive Klebsiella pneumoniae 71697 harboring porin OmpK36V mutant gene by Etest.
Assay [2] concerns Klebsiella pneumoniae. The assay can be described thus: Antimicrobial activity against ESBL-positive Klebsiella pneumoniae 69928 harboring porin OmpK36V mutant gene by Etest.
Assay [3] relates to Klebsiella pneumoniae. The assay can be described thus: Antimicrobial activity against ESBL-positive Klebsiella pneumoniae 69036 harboring porin OmpK36V mutant gene by Etest.
Assay [4] has as its system Klebsiella pneumoniae. Briefly: Antimicrobial activity against ESBL-positive Klebsiella pneumoniae 50748 harboring porin OmpK36 gene by Etest.
Assay [5] relates to Klebsiella pneumoniae. The assay can be described thus: Antimicrobial activity against ESBL-positive Klebsiella pneumoniae 18260 harboring pSHA2-encoded porin OmpK36 gene by Etest.
The subject of assay [6] is Klebsiella pneumoniae. The assay can be described thus: Antimicrobial activity against ESBL-positive Klebsiella pneumoniae 17829 harboring pSHA2-encoded porin OmpK36 gene by Etest.
The test system of assay [7] is Klebsiella pneumoniae. Briefly: Antimicrobial activity against ESBL-positive Klebsiella pneumoniae 19039 harboring porin OmpK36V mutant gene by Etest.
For assay [8], the system named is Klebsiella pneumoniae. Briefly: Antimicrobial activity against ESBL-positive Klebsiella pneumoniae 18918 harboring porin OmpK36V mutant gene by Etest.
For assay [9], the system named is Klebsiella pneumoniae. The assay can be described thus: Antimicrobial activity against ESBL-positive Klebsiella pneumoniae 18567 harboring porin OmpK36V mutant gene by Etest.
Assay [10] concerns Klebsiella pneumoniae. Briefly: Antimicrobial activity against ESBL-positive Klebsiella pneumoniae 18260 by Etest.
The subject of assay [11] is Klebsiella pneumoniae. Briefly: Antimicrobial activity against ESBL-positive Klebsiella pneumoniae 17834 harboring porin OmpK36V mutant gene by Etest.
The test system of assay [12] is Klebsiella pneumoniae. Briefly: Antimicrobial activity against ESBL-positive Klebsiella pneumoniae 17830 harboring porin OmpK36V mutant gene by Etest.
Assay [13] concerns Klebsiella pneumoniae. The assay can be described thus: Antimicrobial activity against ESBL-positive Klebsiella pneumoniae 17829 by Etest.
Assay [14] relates to Klebsiella pneumoniae. The assay can be described thus: Antimicrobial activity against ESBL-positive Klebsiella pneumoniae 17049 harboring porin OmpK36V mutant gene by Etest.
The test system of assay [15] is Klebsiella pneumoniae. Briefly: Antimicrobial activity against ESBL-positive Klebsiella pneumoniae 11932 harboring porin OmpK36 gene by Etest.
For assay [16], the system named is Klebsiella pneumoniae. Briefly: Antimicrobial activity against ESBL-positive Klebsiella pneumoniae 16830 harboring porin OmpK36 gene by Etest.
The test system of assay [17] is Klebsiella pneumoniae. The assay can be described thus: Antimicrobial activity against ESBL-positive Klebsiella pneumoniae 25008 by Etest.
Assay [18] has as its system Klebsiella pneumoniae. The assay can be described thus: Antimicrobial activity against ESBL-positive Klebsiella pneumoniae 26077 harboring porin OmpK36V mutant gene by Etest.
Assay [19] concerns Klebsiella pneumoniae. Briefly: Antimicrobial activity against ESBL-positive Klebsiella pneumoniae 287942 harboring porin OmpK36 gene by Etest.
Assay [20] deals with Klebsiella pneumoniae. The assay can be described thus: Antimicrobial activity against ESBL-positive Klebsiella pneumoniae 29459 harboring porin OmpK36 gene by Etest.
For assay [21], the system named is Klebsiella pneumoniae. Briefly: Antimicrobial activity against ESBL-positive Klebsiella pneumoniae 29830 harboring porin OmpK36V mutant gene by Etest.
In assay [22] the test system is Klebsiella pneumoniae. Briefly: Antimicrobial activity against ESBL-negative Klebsiella pneumoniae 299332 harboring porin OmpK36 gene by Etest.
The test system of assay [23] is Klebsiella pneumoniae. Briefly: Antimicrobial activity against ESBL-negative Klebsiella pneumoniae 30018 harboring porin OmpK35 gene by Etest.
For assay [24], the system named is Klebsiella pneumoniae. The assay can be described thus: Antimicrobial activity against ESBL-positive Klebsiella pneumoniae 6267 harboring porin OmpK36V mutant gene by Etest.
For assay [25], the system named is Klebsiella pneumoniae. The assay can be described thus: Antimicrobial activity against ESBL-positive Klebsiella pneumoniae 16855 harboring porin OmpK36 and OmpK35 genes by Etest.
The subject of assay [26] is Klebsiella pneumoniae. The assay can be described thus: Antimicrobial activity against ESBL-positive Klebsiella pneumoniae 31750 harboring porin OmpK36 gene by Etest.

Each structure is given as a SMILES string. In brackets after ≈: the same amount, converted by molar mass. Some results are limits rather than exact numbers.

As usually defined, the MIC is the least concentration at which growth counts as inhibited.

`C[C@H]1[C@H](NC(=O)/C(=N\OC(C)(C)C(=O)O)c2csc(N)n2)C(=O)N1S(=O)(=O)O` [AZTREONAM]: the MIC in the assay with Klebsiella pneumoniae [1], against Klebsiella pneumoniae [2], in the assay with Klebsiella pneumoniae [3], with Klebsiella pneumoniae [4], against Klebsiella pneumoniae [5] and in the assay on Klebsiella pneumoniae [6] was more than 256 µg/mL throughout. The MIC against Klebsiella pneumoniae [7], with Klebsiella pneumoniae [8], against Klebsiella pneumoniae [9], in the assay on Klebsiella pneumoniae [10], in the assay on Klebsiella pneumoniae [11] and against Klebsiella pneumoniae [12] was more than 256 µg/mL each time. Besides, the MIC in the assay on Klebsiella pneumoniae [13], against Klebsiella pneumoniae [14], in the assay on Klebsiella pneumoniae [15], with Klebsiella pneumoniae [16], against Klebsiella pneumoniae [17] and in the assay with Klebsiella pneumoniae [18] was more than 256 µg/mL each time. In addition, the MIC with Klebsiella pneumoniae [19] was more than 256 µg/mL; in the assay with Klebsiella pneumoniae [20] it was more than 256 µg/mL; against Klebsiella pneumoniae [21], more than 256 µg/mL; in the assay with Klebsiella pneumoniae [22] it was 0.25 µg/mL (≈ 0.574 µM); in the assay with Klebsiella pneumoniae [23], 0.064 µg/mL (≈ 0.147 µM).

Consider `CO/N=C(\C(=O)N[C@@H]1C(=O)N2C(C(=O)[O-])=C(C[N+]3(C)CCCC3)CS[C@H]12)c1csc(N)n1` [CEFEPIME], for which the minimal inhibitory concentration (MIC) in the assay on Klebsiella pneumoniae [1] was more than 256 µg/mL; against Klebsiella pneumoniae [2], more than 256 µg/mL; in the assay on Klebsiella pneumoniae [3], more than 256 µg/mL; with Klebsiella pneumoniae [4] it was 48 µg/mL (≈ 99.9 µM); against Klebsiella pneumoniae [7], more than 256 µg/mL; in the assay with Klebsiella pneumoniae [8], more than 256 µg/mL. Moreover, the minimal inhibitory concentration (MIC) in the assay with Klebsiella pneumoniae [9], in the assay on Klebsiella pneumoniae [10], against Klebsiella pneumoniae [11], in the assay with Klebsiella pneumoniae [12], with Klebsiella pneumoniae [13] and in the assay on Klebsiella pneumoniae [14] was more than 256 µg/mL throughout. Also, the MIC in the assay with Klebsiella pneumoniae [24] is more than 256 µg/mL; against Klebsiella pneumoniae [15], 48 µg/mL (≈ 99.9 µM); against Klebsiella pneumoniae [17] it was more than 256 µg/mL; against Klebsiella pneumoniae [18] it was more than 256 µg/mL; in the assay on Klebsiella pneumoniae [20] it was 96 µg/mL (≈ 200 µM); against Klebsiella pneumoniae [21], more than 256 µg/mL. Besides, the MIC in the assay on Klebsiella pneumoniae [23] stood at 0.047 µg/mL (≈ 0.0978 µM).

In the case of `CO/N=C(\C(=O)N[C@@H]1C(=O)N2C(C(=O)O)=C(COC(C)=O)CS[C@H]12)c1csc(N)n1` [CEFOTAXIME], the minimal inhibitory concentration (MIC) in the assay on Klebsiella pneumoniae [1], in the assay on Klebsiella pneumoniae [2], in the assay on Klebsiella pneumoniae [3], in the assay on Klebsiella pneumoniae [4], with Klebsiella pneumoniae [7] and with Klebsiella pneumoniae [8] was more than 32 µg/mL in each case. The MIC in the assay with Klebsiella pneumoniae [9], against Klebsiella pneumoniae [10], in the assay on Klebsiella pneumoniae [11], in the assay on Klebsiella pneumoniae [12], against Klebsiella pneumoniae [13] and with Klebsiella pneumoniae [14] was more than 32 µg/mL in each case. In addition, the MIC against Klebsiella pneumoniae [25], against Klebsiella pneumoniae [24], against Klebsiella pneumoniae [15], in the assay with Klebsiella pneumoniae [16], in the assay with Klebsiella pneumoniae [17] and against Klebsiella pneumoniae [18] was more than 32 µg/mL each time. Also, the MIC in the assay on Klebsiella pneumoniae [19] was more than 32 µg/mL; in the assay with Klebsiella pneumoniae [20] it was more than 32 µg/mL; in the assay on Klebsiella pneumoniae [21], more than 32 µg/mL; in the assay on Klebsiella pneumoniae [22] it was 0.125 µg/mL (≈ 0.274 µM); in the assay with Klebsiella pneumoniae [23], 0.094 µg/mL (≈ 0.206 µM); against Klebsiella pneumoniae [26], more than 32 µg/mL.

Regarding `CO[C@@]1(NC(=O)Cc2cccs2)C(=O)N2C(C(=O)O)=C(COC(N)=O)CS[C@@H]21` [CEFOXITIN], the minimum inhibitory concentration (MIC) in the assay on Klebsiella pneumoniae [1] came to 128 µg/mL (≈ 299 µM); against Klebsiella pneumoniae [2], 48 µg/mL (≈ 112 µM); against Klebsiella pneumoniae [3], 128 µg/mL (≈ 299 µM); with Klebsiella pneumoniae [4], 6 µg/mL (≈ 14 µM); in the assay with Klebsiella pneumoniae [5], 256 µg/mL (≈ 599 µM); in the assay with Klebsiella pneumoniae [6], 256 µg/mL (≈ 599 µM). In addition, the minimal inhibitory concentration (MIC) in the assay with Klebsiella pneumoniae [7] was more than 256 µg/mL; in the assay on Klebsiella pneumoniae [8], more than 256 µg/mL; in the assay on Klebsiella pneumoniae [9], more than 256 µg/mL; with Klebsiella pneumoniae [10] it was more than 256 µg/mL; with Klebsiella pneumoniae [11], 96 µg/mL (≈ 225 µM); against Klebsiella pneumoniae [12] it was 96 µg/mL (≈ 225 µM). In addition, the MIC against Klebsiella pneumoniae [13] was more than 256 µg/mL; against Klebsiella pneumoniae [14], more than 256 µg/mL; in the assay with Klebsiella pneumoniae [25], 24 µg/mL (≈ 56.1 µM); against Klebsiella pneumoniae [24] it was 32 µg/mL (≈ 74.9 µM); against Klebsiella pneumoniae [15], 6 µg/mL (≈ 14 µM); in the assay with Klebsiella pneumoniae [16] it was 3 µg/mL (≈ 7.02 µM). Also, the MIC with Klebsiella pneumoniae [17] was found to be 64 µg/mL (≈ 150 µM); against Klebsiella pneumoniae [18], 128 µg/mL (≈ 299 µM); against Klebsiella pneumoniae [19], 4 µg/mL (≈ 9.36 µM); in the assay with Klebsiella pneumoniae [20], 6 µg/mL (≈ 14 µM); against Klebsiella pneumoniae [21], 128 µg/mL (≈ 299 µM); with Klebsiella pneumoniae [22], 4 µg/mL (≈ 9.36 µM). Moreover, the minimum inhibitory concentration (MIC) in the assay on Klebsiella pneumoniae [23] and with Klebsiella pneumoniae [26] was 3 µg/mL (≈ 7.02 µM) throughout.

(Values after ChEMBL document CHEMBL1671734, “An ertapenem-resistant extended-spectrum-beta-lactamase-producing Klebsiella pneumoniae clone carries a novel OmpK36 porin variant” (2010).)
